Test results as given in US20070032533A1, “Nitric oxide enhancing angiotensin II antagonist compounds, compositions and methods of use” (NitroMed, Inc., priority 2005, published 2007).
Counter-ions that a name gives are not always drawn.

Legend:
[1] = target: T1, Human angiotensin II type 1 receptor (Homo sapiens, UniProt P30556); assay: Human angiotensin II type 1 receptor binding assay; conditions: for inhibition at 0.1 µM / AT1 Binding Human % Inhibition at 100 nM: percent inhibition of control specific binding at 100 nM test compound; for inhibition at 0.1 µM: read-out: AT1 Binding Human % Inhibition at 100 nM
T1 construct: Cerep, Seattle, Wash; (contract laboratory that ran the assay)
T1 sequence (P30556 1-359): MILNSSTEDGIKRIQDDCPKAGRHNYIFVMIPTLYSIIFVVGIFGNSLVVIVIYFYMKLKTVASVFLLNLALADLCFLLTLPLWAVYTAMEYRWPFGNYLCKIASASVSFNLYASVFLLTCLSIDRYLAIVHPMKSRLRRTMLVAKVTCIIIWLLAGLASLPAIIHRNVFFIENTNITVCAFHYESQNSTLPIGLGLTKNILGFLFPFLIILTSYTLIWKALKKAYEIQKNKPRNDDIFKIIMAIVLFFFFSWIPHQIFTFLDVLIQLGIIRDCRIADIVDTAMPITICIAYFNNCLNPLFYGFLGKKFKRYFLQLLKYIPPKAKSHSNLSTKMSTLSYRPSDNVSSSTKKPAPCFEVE
Description: Human Angiotensin II Type 1 Receptor Binding Assay
The Human angiotensin II type 1 receptor binding assay was performed by Cerep, Seattle, Wash., using the procedure described in Bergsma et al; Biochem. Biophys. Res. Commun., 183: 989-995 (1992).

melting point	IC50 ([1]; human AT1 receptor binding, performed by Cerep)	inhibition at 0.1 µM [1]	Compound	AT1 Binding Human % Inhibition at 100 nM [1]
126 °C (dec.)	–	–	CCOc1nc2cccc(CO[N+](=O)[O-])c2n1Cc1ccc(-c2ccccc2-c2nnn[nH]2)cc1 (as salt: nitrate) [Example 14e, 1H-benzimidazole-7-methanol, 2-ethoxy-1-[[2′-(1H-tetrazol-5-yl)[1,1′-biphenyl]-4-yl]methyl]-, nitrate (ester)]	–
108 to 111 °C	18 nM	86%	CC(C)[C@@H](C(=O)O)N(Cc1ccc(-c2ccccc2-c2nnn[nH]2)cc1)C(=O)CCCCO[N+](=O)[O-] [Example 1g, L-valine, N-[5-(nitrooxy)-1-oxopentyl]-N-[[2′-(1H-tetrazol-5-yl)[1,1′-biphenyl]-4-yl]methyl]]	–
–	–	12%	CC(C)[C@@H](C(=O)OC(C)(C)C)N(Cc1ccc(-c2ccccc2-c2nnn(C(c3ccccc3)(c3ccccc3)c3ccccc3)n2)cc1)C(=O)CCCCCO[N+](=O)[O-] [Example 2f, L-valine, N-[6-(nitrooxy)-1-oxohexyl]-N-[[2′-[2-(triphenylmethyl)-2H-tetrazol-5-yl][1,1′-biphenyl]-4-yl]methyl]-, 1,1-dimethylethyl ester]	–
196 °C (dec.)	–	–	CC(C)[C@@H](C(=O)O)N(Cc1ccc(-c2ccccc2-c2nnn[nH]2)cc1)C(=O)CCCCCO[N+](=O)[O-] [Example 2g, L-valine, N-[6-(nitrooxy)-1-oxohexyl]-N-[[2′-(1H-tetrazol-5-yl)[1,1′-biphenyl]-4-yl]methyl]]	–
151 °C (dec.)	–	5%	CC(C)[C@@H](C(=O)O)N(Cc1ccc(-c2ccccc2-c2nnn[nH]2)cc1)C(=O)c1cccc(CO[N+](=O)[O-])c1 [Example 3b, L-valine, N-[3-[(nitrooxy)methyl]benzoyl]-N-[[2′-(1H-tetrazol-5-yl)[1,1′-biphenyl]-4-yl]methyl]]	–
75 to 78 °C	–	83%	CC(C)[C@@H](C(=O)N(C)C)N(Cc1ccc(-c2ccccc2-c2nnn[nH]2)cc1)C(=O)CCCCO[N+](=O)[O-] [Example 6, Pentanamide, N-[(1S)-1-[(dimethylamino)carbonyl]-2-methylpropyl]-5 (nitrooxy)-N-[[2′-(1H-tetrazol-5-yl)[1,1′-biphenyl]-4-yl]methyl]]	–
54 to 59 °C	–	21%	CCCCC(=O)N(CCCO[N+](=O)[O-])Cc1ccc(-c2ccccc2-c2nnn[nH]2)cc1 [Example 7d, Pentanamide, N-[3-(nitrooxy)propyl]-N-[[2′-(1H-tetrazol-5-yl)[1,1′-biphenyl]-4-yl]methyl]]	–
86 to 89 °C	–	8%	CCCCC(=O)N(Cc1ccc(-c2ccccc2-c2nnn[nH]2)cc1)[C@H](C(=O)N(C)CCO[N+](=O)[O-])C(C)C [Example 9]	–
86 to 88 °C	–	22%	CCCCC(=O)N(Cc1ccc(-c2ccccc2-c2nnn[nH]2)cc1)[C@H](C(=O)N1CCC(CO[N+](=O)[O-])CC1)C(C)C [Example 10, Pentanamide, N-[(1S)-2-methyl-1-[[4-[(nitrooxy)methyl]-1-piperidinyl]carbonyl]propyl]-N-[[2′-(1H-tetrazol-5-yl) [1,1′-biphenyl]-4-yl]methyl]]	–
–	–	–	CCc1nc2c(C)cc(C)nc2n1Cc1ccc(-c2ccccc2S(=O)(=O)NC(=O)C2CC(C)(C)N([O])C(C)(C)C2)cc1 [Example 11, 1-Piperidinyloxy, 4-[[[[4′-[(2-ethyl-5,7-dimethyl-3H-imidazo[4,5-b]pyridin-3-yl)methyl][1,1′-biphenyl]-2-yl]sulfonyl]amino]carbonyl]-2,2,6,6-tetramethyl]	88%
–	–	–	CCc1nc2c(C)cc(C)nc2n1Cc1ccc(-c2ccccc2S(=O)(=O)NC(=O)C2=CC(C)(C)N([O])C2(C)C)cc1 [Example 12, 1H-Pyrrol-1-yloxy, 3-[[[[4′-[(2-ethyl-5,7-dimethyl-3H-imidazo[4,5-b]pyridin-3-yl)methyl][1,1′-biphenyl]-2-yl]sulfonyl]amino]carbonyl]-2,5-dihydro-2,2,5,5-tetramethyl]	78%
123 °C (dec.)	–	73%	CCc1nc2c(C)cc(C)nc2n1Cc1ccc(-c2ccccc2S(=O)(=O)NC(=O)c2cccc(CO[N+](=O)[O-])c2)cc1 [Example 13, Benzamide, N-[[4′-[(2-ethyl-5,7-dimethyl-3H-imidazo[4,5-b]pyridin-3-yl)methyl][1,1′-biphenyl]-2-yl]sulfonyl]-3-[(nitrooxy)methyl]]	–
–	–	–	CCc1nc2c(C)cc(C)nc2n1Cc1ccc(-c2ccccc2S(=O)(=O)NC(=O)c2ccccc2)cc1 [MK 996, reference compound]	91%
–	–	94%	CCCCC(=O)N(Cc1ccc(-c2ccccc2-c2nnn[nH]2)cc1)[C@H](C(=O)O)C(C)C [Valsartan, reference compound]	–

Compound	melting point	IC50 ([1]; human AT1 receptor binding, performed by Cerep)	inhibition at 0.1 µM [1]	AT1 Binding Human % Inhibition at 100 nM [1]
CC(C)[C@@H](C(=O)O)N(Cc1ccc(-c2ccccc2-c2nnn[nH]2)cc1)C(=O)CCC(CO[N+](=O)[O-])O[N+](=O)[O-] (stereo partly drawn) [Example 4b, L-valine, N-[4,5-bis(nitrooxy)-1-oxopentyl]-N-[[2′-(1H-tetrazol-5-yl)[1,1′-biphenyl]-4-yl]methyl]]	182 °C (dec.)	–	2%	–
CC(C)[C@@H](C(=O)O)N(Cc1ccc(-c2ccccc2-c2nnn[nH]2)cc1)C(=O)CCCC(CO[N+](=O)[O-])O[N+](=O)[O-] (stereo partly drawn) [Example 5b, L-valine, N-[5,6-bis(nitrooxy)-1-oxohexyl]-N-[[2′-(1H-tetrazol-5-yl)[1,1′-biphenyl]-4-yl]methyl]]	192 °C (dec.)	–	-1%	–
CCCCC(=O)N(Cc1ccc(-c2ccccc2-c2nnn[nH]2)cc1)[C@H](C(=O)N(CCO[N+](=O)[O-])CCO[N+](=O)[O-])C(C)C [Example 8]	87 to 90 °C	–	4%	–
